The experiment concerns the target T1, human PI3Kδ (Homo sapiens, UniProt O00329).
T1 construct: made in house
T1 sequence (O00329 2-1044 limits assumed): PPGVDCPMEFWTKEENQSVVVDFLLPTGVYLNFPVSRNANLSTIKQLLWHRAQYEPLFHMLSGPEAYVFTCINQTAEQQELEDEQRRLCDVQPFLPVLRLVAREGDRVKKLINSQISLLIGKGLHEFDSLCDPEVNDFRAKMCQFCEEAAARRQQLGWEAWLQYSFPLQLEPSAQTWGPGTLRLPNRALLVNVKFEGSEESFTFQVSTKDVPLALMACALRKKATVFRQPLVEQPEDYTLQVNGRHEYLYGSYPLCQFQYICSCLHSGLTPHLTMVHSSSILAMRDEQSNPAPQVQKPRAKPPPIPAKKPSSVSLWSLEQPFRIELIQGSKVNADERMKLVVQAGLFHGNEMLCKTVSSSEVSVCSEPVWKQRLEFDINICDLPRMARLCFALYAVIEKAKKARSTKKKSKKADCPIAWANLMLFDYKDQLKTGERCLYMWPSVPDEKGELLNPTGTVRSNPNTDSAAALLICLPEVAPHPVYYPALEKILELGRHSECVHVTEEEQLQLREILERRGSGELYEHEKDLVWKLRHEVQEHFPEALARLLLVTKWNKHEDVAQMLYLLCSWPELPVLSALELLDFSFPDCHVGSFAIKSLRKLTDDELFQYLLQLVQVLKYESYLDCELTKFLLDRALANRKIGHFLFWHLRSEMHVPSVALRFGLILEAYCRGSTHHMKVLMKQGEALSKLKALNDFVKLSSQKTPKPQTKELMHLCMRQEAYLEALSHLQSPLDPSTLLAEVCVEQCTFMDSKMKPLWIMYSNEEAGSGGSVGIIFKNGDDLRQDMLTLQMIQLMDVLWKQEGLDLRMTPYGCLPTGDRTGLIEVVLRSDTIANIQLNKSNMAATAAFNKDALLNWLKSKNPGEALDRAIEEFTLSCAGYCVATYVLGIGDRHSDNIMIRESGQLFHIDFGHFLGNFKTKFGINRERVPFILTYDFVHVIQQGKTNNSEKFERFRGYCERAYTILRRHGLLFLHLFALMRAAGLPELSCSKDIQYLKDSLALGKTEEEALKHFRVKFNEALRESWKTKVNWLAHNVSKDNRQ
In words: Biochemical PI3Kdelta (TR-FRET Adapta Universal Kinase Assay). As to conditions: mean of n measurements, read-out: PIK3d/ IC50. On the procedure:
Test compounds were dissolved in DMSO (10 mM) and transferred into 1.4 mL flat bottom or V-shaped Matrix tubes carrying a unique 2D matrix chip by individual Novartis compound hubs. The numbers of these chips were distinctively linked to Novartis Pharma Numbers. The stock solutions were stored at −20° C. if not used immediately. For the test procedure the vials were defrosted and identified by a scanner whereby a working sheet was generated that guided the subsequent working steps.
Compounds were either manually diluted in DMSO for individual experiments (96 wells enabling 10 cpds at 8 (single points) concentrations) as described in or prepared as described below if tested for profiling in 384-wells. This format enabled the assay of maximally 40 individual test compounds at 8 concentrations (single points) including 4 reference compounds. The dilution protocol included the production of “pre-dilution plates”, “master plates” and “assay plates”.
96 polypropylene well plates were used as pre-dilution plates. A total of 4 pre-dilution plates were prepared including 10 test compounds each on the plate positions A1-A10, one standard compound at A11 and one DMSO control at A12. Programs have been written to run these pipetting steps on the HamiltonSTAR robots.
Identical “assay plates” were then prepared by pipetting 50 nL each of compound dilutions of the “master plates” into 384-well “assay plates”. The compounds were mixed with 4.5 μL of assays components plus 4.5 μL enzyme corresponding to a 1:181 dilution enabling the final concentration of 10, 3.0, 1.0, 0.3, 0.1, 0.03, 0.01 and 0.003 μM, respectively. The preparation of the “master plates” was handled by the Matrix PlateMate Plus robot and replication of “assay plates” by the HummingBird robot.
Catalytically active human PI3Kα, PI3Kβ, PI3Kδ, and mTOR were cloned, expressed and purified as described (Maira S M, Stauffer F, Brueggen J, Furet P, Schnell C, Fritsch C, Brachmann S, Chène P, de Pover A, Schoemaker K, Fabbro D, Gabriel D, Simonen M, Murphy L, Finan P, Sellers W, García-Echeverría C (2008), Mol Cancer Ther. 7:1851-63 and Maira S M, Pecchi S, Brueggen J, Huh K, Schnell C, Fritsch C, Nagel T, Wiesmann M, Brachmann S, Dorsch M, Chène P, Schoemaker K, De Pover A, Menezes D, Fabbro D, Sellers W, García-Echeverría C, Voliva C F (2011), Mol. Cancer Ther. accepted).
The TR-FRET Adapta™ Universal Kinase Assay Kit was purchased from Invitrogen Corporation (Carlsbad/CA, USA) (Cat. No. PV5099). The kit contains the following reagents: Adapta Eu-anti-ADP Antibody (Europium labeled anti-ADP antibody in HEPES buffered saline, Cat. No. PV5097), Alexa Fluor® 647-labeled ADP tracer (Alexa Fluor® 647-labeled ADP tracer in HEPES buffered saline, Cat. No. PV5098), proprietary TR-FRET dilution buffer pH 7.5 (Cat. No. PV3574).
PIK3CD substrate Phosphatidylinositol was obtained from Invitrogen (vesicules consisting of 2 mM PI in 50 mM HEPES pH7.5; Cat. No. PV5371). PIK3CG substrate Phosphatidylinositol-4,5-bisphosphate (PIP(4,5)2 was obtained from Invitrogen (PIP2:PS large unilamellar vesicules consisting of 1 mM PIP2: 19 mM PS in 50 mM HEPES pH7.5, 3 mM MgCl2, 1 mM EGTA; Cat. No. PV5100).
Time-Resolved Fluorescence Resonance Energy Transfer (TR-FRET) is a technology based on energy transfer between two adjacent dyes, from an excited electron in one dye (the donor) to an electron of an adjacent dye (the acceptor) through resonance, then released as a photon. This energy transfer is detected by an increase in the fluorescence emission of the acceptor, and a decrease in the fluorescence emission of the donor. TR-FRET assays for protein kinases use a long-lifetime lanthanide Terbium or Europium chelates as the donor species which overcome interference from compound autofluorescence or light scatter from precipitated compounds, by introducing a delay after excitation by a flashlamp excitation source. Results are often expressed as a ratio of the intensities of the acceptor and donor fluorophores.
For the molecule `C[C@H]1C(CC(C)(C)O)OC(=O)N1c1cc(-c2cnc(N)nc2C(F)(F)F)nc(N2CCOCC2)n1` (mixture of isomers) [Example 26, (4S,5R)- and (4S,5S)-3-(2′-amino-2-morpholino-4′-(trifluoromethyl)-[4,5′-bipyrimidin]-6-yl)-5-(2-hydroxy-2-methylpropyl)-4-methyloxazolidin-2-one], the IC50 was found to be 0.012 µM.

In the case of `CC1(CO)COC(=O)N1c1cc(-c2cnc(N)nc2C(F)(F)F)nc(N2CCOCC2)n1` (racemic) [Example 3, 3-(2′-amino-2-morpholino-4′-(trifluoromethyl)-4,5′-bipyrimidin-6-yl)-4-(hydroxymethyl)-4-methyloxazolidin-2-one], the IC50 worked out at 0.012 µM.

As to `Nc1ncc(-c2cc(N3C(=O)O[C@@H]4[C@@H](O)CC[C@@H]43)nc(N3CCOCC3)n2)c(C(F)(F)F)n1` (racemic) [Example 22, (3aR*,6R*,6aR*)-3-(2′-Amino-2-morpholino-4′-(trifluoromethyl)-[4,5′-bipyrimidin]-6-yl)-6-hydroxyhexahydro-2H-cyclopenta[d]oxazol-2-one], the IC50 stood at 0.006 µM.

Consider `Nc1ncc(-c2cc(N3C(=O)OC4C(O)CCC43)nc(N3CCOCC3)n2)c(C(F)(F)F)n1` (single isomer, unassigned) [Example 22A], for which the IC50 was 0.004 µM.

As for `Nc1ncc(-c2cc(N3C(=O)OC4C(O)CCC43)nc(N3CCOCC3)n2)c(C(F)(F)F)n1` (single isomer, unassigned) [Example 22B], the IC50 amounted to 0.005 µM.

With `C[C@@H](O)C[C@H]1OC(=O)N(c2cc(-c3cnc(N)nc3C(F)(F)F)nc(N3CCOCC3)n2)[C@H]1C` (single isomer, unassigned) [Example 24], the IC50 was determined as 0.009 µM.

As to `C[C@H](O)CC1OC(=O)N(c2cc(-c3cnc(N)nc3C(F)(F)F)nc(N3CCOCC3)n2)[C@H]1C` (single isomer, unassigned) [Example 25], the IC50 turned out to be 0.007 µM.

In the case of `C[C@H]1COC(=O)N1c1cc(-c2cnc(N)nc2C(F)(F)F)nc(N2CCOCC2)n1` [Example 1, (S)-3-(2′-Amino-2-morpholin-4-yl-4′-trifluoromethyl-[4,5′]bipyrimidinyl-6-yl)-4-methyl-oxazolidin-2-one], the IC50 turned out to be 0.007 µM.

Regarding `CC1(C)OC(=O)N(c2cc(-c3cnc(N)nc3C(F)(F)F)nc(N3CCOCC3)n2)[C@H]1CO` [Example 2, (S)-3-(2′-Amino-2-morpholin-4-yl-4′-trifluoromethyl-[4,5′]bipyrimidinyl-6-yl)-4-hydroxymethyl-5,5-dimethyl-oxazolidin-2-one], the IC50 came out at 0.075 µM.

Consider `Nc1ncc(-c2cc(N3C(=O)O[C@H]4CCCC[C@@H]43)nc(N3CCOCC3)n2)c(C(F)(F)F)n1` [Example 4, (3aS,7aS)-3-(2′-Amino-2-morpholin-4-yl-4′-trifluoromethyl-[4,5′]bipyrimidinyl-6-yl)-hexahydro-benzooxazol-2-one], for which the IC50 was 0.004 µM.

For the molecule `COC[C@H]1COC(=O)N1c1cc(-c2cnc(N)nc2C(F)(F)F)nc(N2CCOCC2)n1` [Example 5, (S)-3-(2′-Amino-2-morpholin-4-yl-4′-trifluoromethyl-[4,5′]bipyrimidinyl-6-yl)-4-methoxymethyl-oxazolidin-2-one], the IC50 is 0.004 µM.

For the molecule `C[C@@H]1OC(=O)N(c2cc(-c3cnc(N)nc3C(F)(F)F)nc(N3CCOCC3)n2)[C@H]1CO` [Example 6], the IC50 stood at 0.011 µM.

In the case of `[2H]C1([2H])OC([2H])([2H])C([2H])([2H])N(c2nc(-c3cnc(N)nc3C(F)(F)F)cc(N3C(=O)O[C@H](C)[C@@H]3CO)n2)C1([2H])[2H]` [Example 8], the IC50 stood at 0.021 µM.

With `Nc1ncc(-c2cc(N3C(=O)OC[C@@H]3CCO)nc(N3CCOCC3)n2)c(C(F)(F)F)n1` [Example 9, (S)-3-(2′-Amino-2-morpholin-4-yl-4′-trifluoromethyl-[4,5′]bipyrimidinyl-6-yl)-4-(2-hydroxy-ethyl)-oxazolidin-2-one], the IC50 worked out at 0.032 µM.

Regarding `C[C@H]1OC(=O)N(c2cc(-c3cnc(N)nc3C(F)(F)F)nc(N3CCOC[C@@H]3C)n2)[C@H]1CO` [Example 10, (4S,5R)-3-[2′-Amino-2-((S)-3-methyl-morpholin-4-yl)-4′-trifluoromethyl-[4,5′]bipyrimidinyl-6-yl]-4-hydroxymethyl-5-methyl-oxazolidin-2-one], the IC50 was determined as 0.012 µM.

Turning to `Nc1ncc(-c2cc(N3CCOC3=O)nc(N3CCOCC3)n2)c(C(F)(F)F)n1` [Example 11, 3-(2′-Amino-2-morpholin-4-yl-4′-trifluoromethyl-[4,5′]bipyrimidinyl-6-yl)-oxazolidin-2-one, reference compound], the IC50 stood at 0.029 µM.

`C[C@H]1OC(=O)N(c2cc(-c3cnc(N)nc3C(F)(F)F)nc(N3CCOCC3)n2)[C@H]1COC=O` [Example 12, Formic acid (4S,5R)-3-(2′-amino-2-morpholin-4-yl-4′-trifluoromethyl-[4,5′]bipyrimidinyl-6-yl)-5-methyl-2-oxo-oxazolidin-4-ylmethyl ester]: the IC50 turned out to be 0.059 µM.

On to `C[C@H]1COCCN1c1nc(-c2cnc(N)nc2C(F)(F)F)cc(N2C(=O)OC[C@@H]2C)n1` [Example 13, (S)-3-[2′-Amino-2-((S)-3-methyl-morpholin-4-yl)-4′-trifluoromethyl-[4,5′]bipyrimidinyl-6-yl]-4-methyl-oxazolidin-2-one], for which the IC50 turned out to be 0.021 µM.

For `Nc1ncc(-c2cc(N3C[C@@H](CO)OC3=O)nc(N3CCOCC3)n2)c(C(F)(F)F)n1` [Example 14, (S)-3-(2′-Amino-2-morpholin-4-yl-4′-trifluoromethyl-[4,5′]bipyrimidinyl-6-yl)-5-hydroxymethyl-oxazolidin-2-one], the IC50 came to 0.017 µM.

Regarding `C[C@H]1[C@H](CO)OC(=O)N1c1cc(-c2cnc(N)nc2C(F)(F)F)nc(N2CCOCC2)n1` [Example 15, (4S,5R)-3-(2′-Amino-2-morpholin-4-yl-4′-trifluoromethyl-[4,5′]bipyrimidinyl-6-yl)-5-hydroxymethyl-4-methyl-oxazolidin-2-one], the IC50 was 0.015 µM.

Values taken from patent US8865894B2, “Oxazolidin-2-one compounds and uses thereof” (Novartis AG, priority 2012, dated 2014).
